Laboratory results as given in patent US20230172204A1 (BASF SE, priority 2020, published 2023).

Key:
[1] = system: Colletotrichum orbiculare; assay: Micro titer plate test against Colletotrichum orbiculare causing anthracnose (COLLLA); type: cell-based; conditions: Colletotrichum orbiculare, 168 h, read-out: Fungal growth (%) COLLLA
Pyricularia oryzae = assay: microbe, parasite or virus in culture; type: cell-based; conditions: Pyricularia oryzae, 168 h, read-out: Fungal growth (%) PYRIOR
Septoria tritici = assay: microbe, parasite or virus in culture; type: cell-based; conditions: Zymoseptoria tritici, 168 h, read-out: Fungal growth (%) SEPTTR
Alternaria solani (wt) = assay: microbe, parasite or virus in culture; type: cell-based; conditions: Alternaria solani, 168 h, read-out: Fungal growth (%) ALTESO wt
[2] = system: Alternaria solani (F129L); assay: Micro titer plate test against Alternaria solani causing early blight (ALTESO F129L); type: cell-based; conditions: Alternaria solani, 168 h; 0.016 ppm; read-out: Fungal growth (%) ALTESO F129L
Pyrenophora teres (wt) = assay: Micro titer plate test against Pyrenophora teres causing net blotch on barley (PYRNTE wt); type: cell-based; conditions: 168 h, 0.25 ppm, read-out: Fungal growth (%) PYRNTE wt
Leptosphaeria nodorum = assay: Micro titer plate test against Leptosphaeria nodorum causing wheat leaf spots (LEPTNO); type: cell-based; conditions: Parastagonospora nodorum, 168 h; 0.063 ppm; read-out: Fungal growth (%) LEPTNO
Microdochium nivale = assay: Micro titer plate test against Microdochium nivale causing snow mould (MONGNI); type: cell-based; conditions: Microdochium nivale, 168 h; 0.016 ppm; read-out: Fungal growth (%) MONGNI
Cercospora sojina = assay: microbe, parasite or virus in culture; type: cell-based; conditions: Cercospora sojina, 168 h; 4 ppm; read-out: Fungal growth (%) CERCSO
[3] = system: Phakopsora pachyrhizi (F129L); assay: Protective control of soybean rust on soybeans (PHAKPA P6); type: in vivo; conditions: P6 protective, 16 ppm, % diseased leaf area
[4] = system: Phakopsora pachyrhizi (F129L); assay: Protective control of soybean rust on soybeans (PHAKPA P2); type: in vivo; conditions: P2 protective, 16 ppm, % diseased leaf area

`CNC(=O)/C(=N/OC)c1cccc(C)c1CO/N=C(/c1cccc(C)c1)C1CC1` [drawing 958] gave an activity at 0.063 ppm [1] of 93%, an activity at 0.016 ppm (Pyricularia oryzae) of 81% and an activity at 0.25 ppm (Septoria tritici) of 87%. The activity at 0.016 ppm (Alternaria solani (wt)) was 89% and the activity at 0.016 ppm [2] was 93%.

`CO/N=C(/C(=O)OC)c1cccc(C)c1CO/N=C(\SC)c1cccc(Cl)c1` [drawing 960] showed an activity at 0.063 ppm [1] of 82%, an activity at 0.016 ppm (Pyricularia oryzae) of 88% and an activity at 0.25 ppm (Septoria tritici) of 39%. For the same compound, the activity at 0.016 ppm (Alternaria solani (wt)) was 94% and the activity at 0.016 ppm [2] was 100%.

`CO/N=C(/C(=O)OC)c1cccc(C)c1CO/N=C(/c1cccc(Cl)c1)C1CC1` [drawing 961] showed an activity at 0.063 ppm [1] of 89%, an activity at 0.016 ppm (Pyricularia oryzae) of 83% and an activity at 0.25 ppm (Septoria tritici) of 39%. It also gave an activity at 0.016 ppm (Alternaria solani (wt)) of 81% and an activity at 0.016 ppm [2] of 89%.

Work on `CO/N=C(/C(=O)OC)c1cccc(C)c1CO/N=C(\SC)c1cccc(Cl)c1` [drawing 963] yielded an activity at 0.25 ppm (Pyrenophora teres (wt)) of 57%, an activity at 0.063 ppm (Leptosphaeria nodorum) of 88% and an activity at 0.016 ppm (Microdochium nivale) of 95%. For the same compound, the activity at 4 ppm (Cercospora sojina) was 62%.

Work on `CO/N=C(/C(=O)OC)c1cccc(C)c1CO/N=C(/c1cccc(Cl)c1)C1CC1` [drawing 964] yielded an activity at 0.25 ppm (Pyrenophora teres (wt)) of 69% and an activity at 4 ppm (Cercospora sojina) of 61%.

For `CNC(=O)/C(=N/OC)c1cccc(C)c1CO/N=C(\SC)c1cccc(Cl)c1` [drawing 966], the activity at 0.063 ppm [1] was 82%, the activity at 0.016 ppm (Pyricularia oryzae) was 100% and the activity at 0.25 ppm (Septoria tritici) was 59%. It also gave an activity at 0.25 ppm (Alternaria solani (wt); 0.25 ppm) of 43% and an activity at 0.016 ppm [2] of 90%.

With `CO/N=C(/C(=O)OC)c1ccccc1CO/N=C(\C)c1cc(Cl)cc(Cl)c1` [reference compound] the “PHAKPA (F129L) Disease level (%) P6 at 16 ppm” value (“PHAKPA … (%) P6 at 16 ppm” for short) [3] was 17% and the “PHAKPA (F129L) Disease level (%) P2 at 16 ppm” value (“PHAKPA … (%) P2 at 16 ppm” below) [4] was 27%.

For `CO/N=C(/C(=O)OC)c1ccccc1CO/N=C(\C)c1cccc(Br)c1` [reference compound], the “PHAKPA … (%) P6 at 16 ppm” value [3] was 87% and the “PHAKPA … (%) P2 at 16 ppm” value [4] was 80%.

For `CO/N=C(/C(=O)OC)c1ccccc1CO/N=C(\C)c1ccc(Cl)cc1` [reference compound], the “PHAKPA … (%) P6 at 16 ppm” value [3] was 43% and the “PHAKPA … (%) P2 at 16 ppm” value [4] was 63%.

`CO/N=C(/C(=O)OC)c1ccccc1CO/N=C(\C)c1cccc(C)c1` [reference compound] was tested, and the “PHAKPA … (%) P6 at 16 ppm” value [3] was 83% and the “PHAKPA … (%) P2 at 16 ppm” value [4] was 93%.

With `CO/N=C(/C(=O)OC)c1ccccc1CO/N=C(\C)c1cccc(F)c1` [reference compound] the “PHAKPA … (%) P6 at 16 ppm” value [3] was 80% and the “PHAKPA … (%) P2 at 16 ppm” value [4] was 90%.

For `CO/N=C(/C(=O)OC)c1ccccc1CO/N=C(\C)c1cccc(Cl)c1` [reference compound], the “PHAKPA … (%) P6 at 16 ppm” value [3] was 70% and the “PHAKPA … (%) P2 at 16 ppm” value [4] was 73%.

With `CO/N=C(/C(=O)OC)c1ccccc1CO/N=C(\C)c1cccc(C#N)c1` [reference compound] the “PHAKPA … (%) P6 at 16 ppm” value [3] was 43% and the “PHAKPA … (%) P2 at 16 ppm” value [4] was 80%.

With `CO/C=C(/C(=O)OC)c1ccccc1CO/N=C(\C)c1ccccc1C(F)(F)F` [reference compound] the “PHAKPA … (%) P6 at 16 ppm” value [3] was 9% and the “PHAKPA … (%) P2 at 16 ppm” value [4] was 11%.

In the case of `CO/N=C(/C(=O)OC)c1ccccc1CO/N=C(\C)c1cc(F)ccc1F` [reference compound], the “PHAKPA … (%) P6 at 16 ppm” value [3] is reported as 22% and the “PHAKPA … (%) P2 at 16 ppm” value [4] is reported as 1%.
